From patent US4921871A, “Enolamides, pharmaceutical compositions and methods of use thereof for treating inflammation” (Warner-Lambert Company, priority 1987, dated 1990)
Values joined by “and” are separate entries in the source; they are usually repeats but may differ in a detail not shown here. Equal entries are not always repeated.

Tests used:
leukotriene receptor = target: T1, leukotriene receptor (Cavia porcellus, UniProt Q2NNR5); test: Binding of 3H-Leukotriene D4 to Guinea Pig Lung Membranes (RBL)
T1 construct: Two pairs of lungs (1.3 g) from freshly sacrificed 300 g male guinea pigs; tissue Kuiper Rabbit Farm, Gary, Ind; (animals); host or cells: guinea pig lung, crude membranes
T1 sequence (Q2NNR5 1-340): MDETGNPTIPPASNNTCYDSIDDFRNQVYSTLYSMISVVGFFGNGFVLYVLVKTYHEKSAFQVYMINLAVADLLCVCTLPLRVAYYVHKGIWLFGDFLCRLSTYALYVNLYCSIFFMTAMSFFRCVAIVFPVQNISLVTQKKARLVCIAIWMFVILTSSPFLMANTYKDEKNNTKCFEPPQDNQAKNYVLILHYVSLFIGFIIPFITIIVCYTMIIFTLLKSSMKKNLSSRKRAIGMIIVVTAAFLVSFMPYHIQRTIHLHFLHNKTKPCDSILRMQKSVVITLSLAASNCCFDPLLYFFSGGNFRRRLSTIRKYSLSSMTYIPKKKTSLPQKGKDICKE
Experimental: Additionally, the activity, of the compounds having the Formula I of the present invention is determined by the well known leukotriene receptor binding assay that is described by R. F. Bruns, W. J. Thomsen and T. A. Pugsley in Life Sciences, 33, 645 (1983) or the Herxheimer in vivo antiallergy test described in H. Herxheimer, J. Physiol. (London), Vol. 177, p. 251 (1952).
[14,15-^3 H]leukotriene D4 (^3 H-LTD4) (25 Ci/mmol and 40 Ci/mmol) is purchased from New England Nuclear. Unlabeled LTC4 is a gift of Ono Pharmaceuticals (Japan). LTC4, LTD4, and LTE4 are purchased as methyl esters from Paesel GmbH (Frankfurt, W. Germany). Concentrations of the Paesel leukotrienes are calculated from their absorbance at 280 nm. Leukotriene esters are saponified overnight under N2 in 3.3% potassium carbonate at room temperature. Tritiated leukotrienes are stored as received from New England Nuclear at -20° C. Ono LTC4 (5 μg/ml) is stored at -60° C. in phosphate buffer pH - 6.8. Saponified Paesel leukotrienes are stored at -60° C. in 3.3% potassium carbonate (pH 9.0-9.5). Aliquots of leukotrienes are taken from stock solutions immediately after thawing, after which the stock solutions are immediately refrozen. 2-Amino-2-(hydroxymethyl)-1,3-propanediol (Tris) is Sigma pH 7.7 pre-set crystals, and dimethylsulfoxide is Aldrich Gold Label. Preparation of crude lung membranes
Two pairs of lungs (1.3 g) from freshly sacrificed 300 g male guinea pigs (older animals gave substantially lower binding) from Kuiper Rabbit Farm, Gary, Ind. are disrupted with a Polytron PT 10 (setting 4) for 30 seconds in 20 ml ice-cold 50 mM Tris adjusted with HCl to pH 7.7 at 25° C. (Tris buffer), filtered through a single layer of gauze to remove connective tissue, and centrifuged at 50,000 xg for ten min. The pellet is resuspended by homogenization with a Polytron in 20 ml Tris buffer, centrifuged at 50,000 xg for ten min., resuspended, incubated at 37° C. for 30 minutes, and centrifuged again. The final pellet is resuspended in Tris buffer and either used fresh or stored at -70° C.
All incubations are in triplicate for 60 minutes at 25° C. in 12×75 mm polystyrene tubes containing 1 ml Tris buffer with 20 mg original tissue wet weight of guinea pig lung membranes, 0.2 nM ^3 H-LTD4 (6,000-11,000 cpm), 10 mM MgCl2, and 1% dimethylsulfoxide. Leukotrienes are diluted in Tris buffer. All other test compounds dissolved at 10 mM in dimethylsulfoxide on the same day as the experiment, and diluted in dimethylsulfoxide to 100× the final incubation concentration. Control incubations receive an equal volume (10 μl) of dimethylsulfoxide; the resulting concentration of dimethylsulfoxide had no effect on binding. ^3 H-LTD4 is diluted to 2 nM in Tris buffer. The membrane suspension (20 mg/0.89 ml) contains sufficient MgCl2 to give 10 mM final concentration in the incubation. […] All additions are performed at 0° C. Immediately after the last addition, the incubation is initiated by agitating the rack of tubes on a vortex mixer and warming to 25° C. in a water bath. Tubes are vortexed at least once more during the incubation to ensure that the membranes remained suspended. Incubations are terminated after 60 minutes by filtering under reduced pressure through 25 mm Whatman GF/B filters followed by rapid washing three times with 4 ml of ice-cold Tris buffer. Filters are added to scintillation vials with 8 ml Formula 947 (New England Nuclear), left overnight, shaken, and the radioactivity counted in a scintillation counter (efficiency 40%). Nonspecific binding, defined as binding of ^3 H-LTD4 in the presence of 100 nM LTC4, is 300-500 cpm for all lots of ^3 H-LTD4. Binding to the filters in the absence of tissue is about 100 cpm, and is not affected by unlabeled LTC4. Specific binding, defined as total binding minus nonspecific binding, varied considerably from lot to lot of ^3 H-LTD4. […]

[1] = test system: Human Leukocyte Lipoxygenase; test: Human Leukocyte Lipoxygenase Assay (LDA-H); assay type: biochemical
Experimental: Whole blood is collected from normal volunteers and spun in a refrigerated centrifuge for four minutes at 1°-6° C. at 3800 g. The buffy coat is manually separated and washed twice with chilled 0.83% NH4 Cl and centrifuged at 1000 RPM for ten minutes at 4° C. The white cell is suspended in culture media-EMEM supplemented with 6% Agamma human serum, tricine buffer, and neomycin and recentrifuged at 1000 g to yield a pellet containing the leukocytes used for the preparation of the acetone pentane powder.
The acetone-pentane powder is prepared utilizing a modification of the procedure reported for human platelet lipoxygenase. See Siegel, et al, Arachidonate Metabolism via Lipoxygenase and 12-L-hydro-peroxy-5 Eicosatetraenoic Acid Peroxidase Sensitive to Antiinflammatory Drugs, Proc. Natl. Acad. Sci., U.S.A. 77:308, 1980 and D. P. Wallach and V. R. Brown, A Novel Preparation of Human Platlet Lipoxygenase, Biochem. Biophys. Acta. 663:361, 1981. Buffy coat prepared above is resuspended in 5-7 volumes of cold 0.1M Tris buffer, pH 7.4 containing 0.154M NaCl. The suspension is centrifuged at 13,300 g for ten minutes at 4° C. The resultant pellet is retained, resuspended in five volumes of cold acetone, recentrifuged at 13,300 g and resuspended in five volumes of cold pentane. The pentane suspension is centrifuged for ten minutes at 13,300 g to give a pellet which is dried in the cold under vacuum with periodic pulverization. The dry powder is stable for several weeks when stored at -80° C.
Enzyme stock solution is prepared in the following manner. About 15 mg of the acetone-pentane powder is suspended in 4 ml of cold tris buffer (0.1M, pH 7.4), allowed to stand for five minutes, and homogenized thoroughly. The homogenate is sonicated three times for 15 seconds each time, diluted to 7 ml with cold tris buffer (0.1M, pH 7.4), and centrifuged at 4° C. for 60 minutes at 13,300 g. The supernatent is retained and diluted to a total of 10 ml with cold tris buffer (0.1M, pH 7.4) to give the stock enzyme solution. Additional dilutions of 2-50 fold are done as necessary to locate optimal enzyme reaction rate in the assay described below.
Substrate solution is prepared at 100 μM or 1.0 μM concentrations of arachidonic acid or linoleic acid in 0.1M tris buffer, pH 9.0 containing 20% ethanol.
The enzyme reaction is followed spectrophotometrically by the appearance of a conjugated diene product at 234 nm. The reaction is monitored at 24° C. using a Gilford Model 2600 spectrophotometer. […] The effects of inhibitors on the reaction are compared with control reactions run under indentical conditions. Routinely, each compounds of the present invention is incubated with the enzyme for five minutes prior to addition of substrate to initiate the reaction. Inhibition expressed as IC50 as molar concentration of the compound required to reduce reaction rate to 50% control.

O=C(O)c1ccc(CCc2ccc(NC(=O)C3CS(=O)(=O)c4ccccc4C3=O)cc2)cc1 (stereo not shown) [Example 12, 4-[2-[4-[[(3,4-Dihydro-4-oxo-2H-1-benzothiopyran-3-yl)carbonyl]amino]phenyl]ethyl]benzoic acid, 1,1-dioxide]
RBL, % Inhibition (leukotriene receptor; 1.00 E -4 M): 0.0%

O=C(Nc1ccc(CCc2cc(O)c(O)c(O)c2)cc1)C1=C(O)c2ccccc2S(=O)(=O)C1 [Example 36]
RBL, % Inhibition (leukotriene receptor; 1.00 E -4 M): 78.0% and 81.0% | RBL, % Inhibition (leukotriene receptor; 1.00 E -5 M): 7.0% | RBL, % Inhibition (leukotriene receptor; 2.00 E -5 M): 27.0% | RBL, % Inhibition (leukotriene receptor; 2.00 E -6 M): 6.0% | RBL, % Inhibition (leukotriene receptor; 3.15 E -5 M): 80.0% | RBL, % Inhibition (leukotriene receptor; 5.00 E -5 M): 59.0% | RBL, % Inhibition (leukotriene receptor; 5.00 E -6 M): 3.0% | LDAH, % Inhibition ([1]; 2.50 E -5 M): 0.0%

O=C(Nc1ccc(CCc2ccccc2O)cc1)C1=C(O)c2ccccc2S(=O)(=O)C1 [Example 38]
IC50 (leukotriene receptor; 0.2 nM 3H-LTD4, guinea pig lung membranes, 60 min, 25 °C, read-out: RBL, concentration for 50% inhibition (IC)): 26.5 µM | LDAH, % Inhibition ([1]; 2.50 E -5 M): 0.0% | LDAH, % Inhibition ([1]; 8.00 E -5 M): 0.0%

CN(C)c1ccc(CCc2ccc(NC(=O)C3CS(=O)(=O)c4ccccc4C3=O)cc2)cc1 (stereo not shown) [Example 55]
RBL, % Inhibition (leukotriene receptor; 1.00 E -5 M): 6.0% | RBL, % Inhibition (leukotriene receptor; 1.00 E -6 M): 5.0% | RBL, % Inhibition (leukotriene receptor; 2.00 E -5 M): 12.0% | RBL, % Inhibition (leukotriene receptor; 2.00 E -6 M): 10.0% | RBL, % Inhibition (leukotriene receptor; 5.00 E -5 M): 11.0% | RBL, % Inhibition (leukotriene receptor; 5.00 E -6 M): 13.0%

CCCCCCCCCCc1ccc(NC(=O)C(=O)c2sc3ccc(Cl)cc3c2O)cc1 [Example 135, Benzo[b]thiophene-2-acetamide, 5-chloro-N-(4-decylphenyl)-3-hydroxy-α-oxo]
RBL, % Inhibition (leukotriene receptor; 1.00 E -4 M): 43.0%

O=C(Nc1ccc(CCc2ccc(Cl)cc2)cc1)C(=O)c1sc2ccccc2c1O [Example 137, Benzo[b]thiophene-2-acetamide, N-[4-[2-(4-chlorophenyl)ethyl]phenyl]-3-hydroxy-α-oxo]
RBL, % Inhibition (leukotriene receptor; 1.00 E -4 M): 12.0%

COc1ccc(CCc2ccc(NC(=O)C(=O)c3sc4ccc(Cl)cc4c3O)cc2)cc1OC [Example 139, Benzo[b]thiophene-2-acetamide, 5-chloro-N-[4-[2-(3,4-dimethox-yphenyl)ethyl]phenyl]-3-hydroxy-α-oxo]
RBL, % Inhibition (leukotriene receptor; 1.00 E -4 M): 25.0%

O=C(Nc1ccc(CCc2ccc(Cl)cc2)cc1)c1sc2ccccc2c1O [Example 145, Benzo[b]thiophene-2-carboxamide, N-[4-[2-(4-chlorophenyl)ethyl]phenyl]-3-hydroxy]
RBL, % Inhibition (leukotriene receptor; 1.00 E -4 M): 30.0%
